Consider six compounds from patent publication US7452546B2, “Particles containing agricultural active ingredients” (priority 1997, dated 2008).

Read-outs that look alike come from different tables or passages of the source.

One series has as its system plants. As to conditions: cited from earlier work.
Series [1] can be described thus: Water saturation concentration of active ingredient. The format is physicochemical. As to conditions: room temperature stated for epoxiconazole.
Setting [2] is: The Pesticide Manual, Eleventh Edition, 1997.

As for `CC1COC(Cn2cncn2)(c2ccc(Oc3ccc(Cl)cc3)cc2Cl)O1` (stereo not drawn) [difenoconazole], the phytotoxicity to plants entry in the series on plants (setting [2]) is reported as “can cause chlorosis in wheat”.
In turn, `Fc1ccc([C@]2(Cn3cncn3)O[C@H]2c2ccccc2Cl)cc1` (racemic) [epoxiconazole] showed a water saturation concentration in series [1] of 7 ppm.
Regarding `CC1(C)CCC(Cc2ccc(Cl)cc2)C1(O)Cn1cncn1` (stereo not drawn) [metconazole], the phytotoxicity to plants result in the series on plants (in vivo) is “can cause stunting and yellowing of plants”.
For `CCCCC(O)(Cn1cncn1)c1ccc(Cl)cc1Cl` (stereo not drawn) [hexaconazole], in the series on plants (in vivo), the phytotoxicity to plants result was “can cause damage to McIntosh apples”.
In the case of `CC(C)(C)C(O)(CCc1ccc(Cl)cc1)Cn1cncn1` (stereo not drawn) [tebuconazole], in series [1], the water saturation concentration is reported as 32 ppm.
With `CC(C)(C)C(O)C(Oc1ccc(-c2ccccc2)cc1)n1cncn1` (stereo not drawn) [bitertanol], the phytotoxicity to plants result with plants (setting [2]) was “can cause damage to fruit crops”.
